Source: article PMC9602571, “Discovery of a Dual SENP1 and SENP2 Inhibitor” (International Journal of Molecular Sciences, 2022)
Like-named read-outs stand apart in the source and are kept apart here.

Columns and labels:
SENP1 = biological target: T1, SENP1 (Homo sapiens, UniProt Q9P0U3); experiment: Fluorogenic SENP1 assay, SUMO1-AMC substrate; type: biochemical; details: for LE (ligand efficiency): calculated: 1.4(-logIC50)/N; for reduced inhibition by a factor: compared to hit compound 11
T1 construct: Human recombinant, His6-SENP1 Catalytic Domain; His6 (N); purchased Boston Biochem (Bio-Techne AG) E-700
T1 sequence (Q9P0U3 450-613 limits assumed): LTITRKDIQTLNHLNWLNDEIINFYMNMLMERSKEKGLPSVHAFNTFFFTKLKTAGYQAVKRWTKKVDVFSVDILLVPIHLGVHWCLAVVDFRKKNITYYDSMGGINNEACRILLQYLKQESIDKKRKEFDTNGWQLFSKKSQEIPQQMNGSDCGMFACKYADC
Method: Human recombinant, His6-SENP1 Catalytic Domain (Boston Biochem Cat# E-700, Bio-Techne AG, Zug, Switzerland) was prepared in reaction buffer (50 mM HEPES, 150 mM NaCl, 0.5 mM EDTA, 1 mM DTT, pH 7.5, 0.01% CHAPS). To this solution, a 20 mM or 50 mM inhibitor stock solution in DMSO was added and the mixture was incubated for 15 min at ambient temperature. […] The slope was calculated using Excel and the curve fits were performed using GraphPad Prism7 with a four-parameter least-squares fit. The final reaction conditions contained 0.02 nM SENP1 and 300 nM SUMO1/2 or 3-AMC).

[1] = SUMO1-AMC 300 nM, 0.02 nM SENP1, interval in parentheses, read-out: IC50 SENP1
[2] = screening library samples, SUMO1-AMC, read-out: IC50 SENP1 of hit molecules

Row | IC50 (SENP1; [1]) | LE (ligand efficiency) (SENP1) | melting point | Structure (SMILES) | also measured
1 | 67 µM | 0.34 | 275 to 278 °C | O=C1Nc2cc([N+](=O)[O-])ccc2NC12CCCC2 [Compound 41, 6′-Nitro-3′,4′-dihydro-1′H-spiro[cyclopentane-1,2′-quinoxalin]-3′-one] | –
2 | > 100 µM | – | 230 °C (dec.) | O=C(O)Cc1cn(CC(=O)N2c3ccccc3NC(=O)C23CCCC3)nn1 [Compound 52, 2-[1-(2-Oxo-2-{3′-oxo-3′,4′-dihydro-1′H-spiro[cyclopentane-1,2′-quinoxalin]-1′-yl}ethyl)-1H-1,2,3-triazol-4-yl]acetic acid] | –
3 | 29 µM | – | 272 °C (dec.) | O=C(O)c1cccc(-c2cn(CC(=O)N3c4ccccc4NC(=O)C34CCCC4)nn2)c1 [Compound 47, 3-[1-(2-Oxo-2-{3′-oxo-3′,4′-dihydro-1′H-spiro[cyclopentane-1,2′-quinoxalin]-1′-yl}ethyl)-1H-1,2,3-triazol-4-yl]benzoic acid] | –
4 | 23 µM | – | 256 °C (dec.) | O=C(Cn1cc(-c2ccccc2)nn1)N1c2ccccc2NC(=O)C12CCCC2 [Compound 44, 1′-[2-(4-Phenyl-1H-1,2,3-triazol-1-yl)acetyl]-3′,4′-dihydro-1′H-spiro[cyclopentane-1,2′-quinoxalin]-3′-one] | –
5 | > 100 µM | – | – | COCCc1cn(CC(=O)N2c3ccccc3NC(=O)C23CCCC3)nn1 [Compound 53, 1′-{2-[4-(2-Methoxyethyl)-1H-1,2,3-triazol-1-yl]acetyl}-3′,4′-dihydro-1′H-spiro[cyclopentane-1,2′-quinoxalin]-3′-one] | –
6 | 50 µM | – | 197 to 202 °C (dec.) | O=C(Cn1nnnc1-c1ccccc1)N1c2ccccc2NC(=O)C12CCCC2 [Compound 54, 1′-[2-(5-Phenyl-1H-1,2,3,4-tetrazol-1-yl)acetyl]-3′,4′-dihydro-1′H-spiro[cyclopentane-1,2′-quinoxalin]-3′-one] | –
7 | 19 µM | – | 205 °C (dec.) | O=C(Cn1cc(C2CCCCC2)nn1)N1c2ccccc2NC(=O)C12CCCC2 [Compound 45, 1′-[2-(4-Cyclohexyl-1H-1,2,3-triazol-1-yl)acetyl]-3′,4′-dihydro-1′H-spiro[cyclopentane-1,2′-quinoxalin]-3′-one] | –
8 | > 500 µM | – | – | O=C1Nc2ncccc2NC12CCCC2 [Compound 34, 3′,4′-Dihydro-1′H-spiro[cyclopentane-1,2′-pyrido [2,3-b]pyrazin]-3′-one] | SENP1 activity in words (SENP1; up to 500 µM): complete loss of activity
9 | 110 µM | 0.34 | 176 to 180 °C | COc1cccc2c1NC(=O)C1(CCCC1)N2 [Compound 37, 5′-Methoxy-3′,4′-dihydro-1′H-spiro[cyclopentane-1,2′-quinoxalin]-3′-one] | –
10 | 6.6 µM | – | 67 to 70 °C | CCCCCCCC(=O)N1c2ccccc2NC(=O)C12CCCC2 [Compound 57, 1′-Octanoyl-3′,4′-dihydro-1′H-spiro[cyclopentane-1,2′-quinoxalin]-3′-one] | –
11 | 13 µM | – | 249 °C (dec.) | COc1ccc(-c2cn(CC(=O)N3c4ccccc4NC(=O)C34CCCC4)nn2)cc1 [Compound 49, 1′-{2-[4-(4-Methoxyphenyl)-1H-1,2,3-triazol-1-yl]acetyl}-3′,4′-dihydro-1′H-spiro[cyclopentane-1,2′-quinoxalin]-3′-one] | –
12 | > 200 µM | – | – | O=C(Cn1cc(C2CC2)nn1)N1c2ccccc2NC(=O)C12CCCC2 [Compound 51, 1′-[2-(4-Cyclopropyl-1H-1,2,3-triazol-1-yl)acetyl]-3′,4′-dihydro-1′H-spiro[cyclopentane-1,2′-quinoxalin]-3′-one] | –
13 | > 200 µM | – | 218 °C (dec.) | O=C(Cn1cc(-c2ccccn2)nn1)N1c2ccccc2NC(=O)C12CCCC2 [Compound 50, 1′-{2-[4-(Pyridin-2-yl)-1H-1,2,3-triazol-1-yl]acetyl}-3′,4′-dihydro-1′H-spiro[cyclopentane-1,2′-quinoxalin]-3′-one] | SENP1 inhibition in words (SENP1; at 200 µM): only slight inhibition
14 | 37 µM | 0.44 | 126 to 130 °C (dec.) | O=C1Nc2cscc2NC12CCCC2 [Compound 35, 3′,4′-Dihydro-1′H-spiro[cyclopentane-1,2′-thieno [3,4-b]pyrazin]-3′-one] | –
15 | 153 µM | – | – | CC1(C)C(=O)Nc2ccccc2N1C(=O)CN1CCc2ccccc21 [Compound S4] | –
16 | 7.5 µM | – | 263 °C (dec.) | COC(=O)c1ccc(-c2cn(CC(=O)N3c4ccccc4NC(=O)C34CCCC4)nn2)cc1 [Compound 48, Methyl 4-[1-(2-oxo-2-{3′-oxo-3′,4′-dihydro-1′H-spiro[cyclopentane-1,2′-quinoxalin]-1′-yl}ethyl)-1H-1,2,3-triazol-4-yl]benzoate] | –
17 | 202 µM | 0.28 | 246 to 250 °C (dec.) | COC(=O)c1ccc2c(c1)NC(=O)C1(CCCC1)N2 [Compound 40, Methyl 3′-oxo-3′,4′-dihydro-1′H-spiro[cyclopentane-1,2′-quinoxaline]-6′-carboxylate] | –
18 | > 200 µM | – | – | COc1ccc(N(C)CC(=O)N2c3ccccc3NC(=O)C2(C)C)cc1 [Compound S7] | –
19 | 61 µM | 0.39 | – | O=C1Nc2cscc2NC12CCCCC2 [Compound 36, 3′,4′-Dihydro-1′H-spiro[cyclohexane-1,2′-thieno [3,4-b]pyrazin]-3′-one] | –
20 | 198 µM | 0.32 | 224 to 227 °C (dec.) | COc1ccc2c(c1)NC1(CCCC1)C(=O)N2 [Compound 39, 7′-Methoxy-3′,4′-dihydro-1′H-spiro[cyclopentane-1,2′-quinoxalin]-3′-one] | –

Second part, the compound before the results:

Row | Structure (SMILES) | IC50 (SENP1; [1]) | LE (ligand efficiency) (SENP1) | melting point | also measured
21 | CC1(C)C(=O)Nc2ccccc2N1C(=O)COc1ccccc1 [Compound S3] | > 200 µM | – | – | –
22 | CN(CC(=O)N1c2ccccc2NC(=O)C1(C)C)Cc1ccccc1 [Compound S5] | > 200 µM | – | – | –
23 | O=C1Nc2ccccc2NC12CCCC2 [Compound 15, 3′,4′-Dihydro-1′H-spiro[cyclopentane-1,2′-quinoxalin]-3′-one] | 116 µM | 0.37 | 174 °C | –
24 | O=C1Nc2ccccc2NC12CCCCCCC2 [Compound 28, 3′,4′-Dihydro-1′H-spiro[cyclooctane-1,2′-quinoxalin]-3′-one] | 51 µM | 0.33 | – | –
25 | CC1(C)Nc2ccccc2NC1=O [Compound 16, 3,3-Dimethyl-1,2,3,4-tetrahydroquinoxalin-2-one] | > 500 µM | – | 178 °C | inhibition at 500 µM (SENP1): ~50%
26 | O=C1Nc2ccccc2NC12CCCCC2 [Compound 27, 3′,4′-Dihydro-1′H-spiro[cyclohexane-1,2′-quinoxalin]-3′-one] | 261 µM | 0.31 | 230 to 234 °C (dec.) | –
27 | CN(CC(=O)N1c2ccccc2NC(=O)C1(C)C)c1ccccc1 [Compound S6] | > 200 µM | – | – | –
28 | CC1(C)C(=O)Nc2ccccc2N1C(=O)CN1CCN(c2ccccc2)CC1 [Compound S2] | 101 µM | – | – | –
29 | O=C1Nc2ccccc2OC12CCCC2 [Compound 26, 3,4-Dihydrospiro [1,4-benzoxazine-2,1′-cyclopentan]-3-one] | 78 µM | 0.38 | 157 to 162 °C | –
30 | O=C1Nc2ccccc2NC12COC2 [Compound 30, 3′,4′-Dihydro-1′H-spiro[oxetane-3,2′-quinoxalin]-3′-one] | 81 µM | 0.41 | 165 to 170 °C (dec.) | –
31 | O=C(CN1CCN(c2ccccc2)CC1)N1c2ccccc2NC(=O)C12CCCC2 [Compound S1] | 152 µM | – | – | –
32 | c1ccc2c(c1)NCC1(CCCC1)N2 [Compound 33, 3′,4′-Dihydro-1′H-spiro[cyclopentane-1,2′-quinoxaline]] | > 500 µM | – | 80 to 82 °C | –
33 | CC1(C)C(=O)Nc2ccccc2N1C(=O)Cn1nnc(-c2ccccc2)n1 [Compound 23, 3,3-Dimethyl-4-[2-(5-phenyl-2H-1,2,3,4-tetrazol-2-yl)acetyl]-1,2,3,4-tetrahydroquinoxalin-2-one] | 12.3 µM | – | 252 °C (dec.) | reduced inhibition by a factor (SENP1): 1.5
34 | CC1CCn2cc(C(=O)NC3CCn4cc(-c5ccc(F)cc5F)nc4C3)nc2C1 (stereo not drawn) [Compound 13] | – | – | – | IC50 (SENP1; [2]): 28 µM
35 | O=C1CN(C(=O)Cn2nnc(-c3ccccc3)n2)c2ccccc2N1 [Compound 24, 4-[2-(5-Phenyl-2H-1,2,3,4-tetrazol-2-yl)acetyl]-1,2,3,4-tetrahydroquinoxalin-2-one] | 77.6 µM | – | 231 °C (dec.) | reduced inhibition by a factor (SENP1): 10
36 | O=C1CNc2ccccc2N1 [Compound 25, 1,2,3,4-tetrahydroquinoxalin-2-one] | > 500 µM | – | – | –
37 | Cc1c(C(=O)N2CCC(C)CC2)nnn1-c1cccc2c1CCN(Cc1ccccc1)C2 [Compound 12] | – | – | – | IC50 (SENP1; [2]): 27 µM
38 | O=C1Nc2ccccc2NC12CCC2 [Compound 29, 3′,4’-Dihydro-1′H-spiro[cyclobutane-1,2′-quinoxalin]-3′-one] | 66 µM | 0.42 | – | –
39 | O=C1NC2(CCCC2)Nc2ccccc21 [Compound 32, 3′,4′-Dihydro-1′H-spiro[cyclopentane-1,2′-quinazolin]-4′-one] | – | – | 233 to 238 °C (dec.) | –
